`CON=Cc1ccc2c(c1)ncn2-c1cccc(-c2nccs2)c1` gave a melting point of 154 to 160 °C. In the case of `CC(COc1c(-c2ccccc2)c(=O)[nH]c2cc(Cl)ccc12)=NO`, the melting point is reported as 196 to 198 °C. With `C[Si](C)(C)c1cc(C(F)=C(F)C(F)(F)F)c(S(N)(=O)=O)s1` the melting point was 129 to 140 °C. In the case of `COc1cccc(Oc2c(NS(=O)(=O)c3ccc(C(C)(C)C)cc3)ncnc2OCCOc2ncc(C(C)O)cn2)c1` (configuration not stated), the melting point is reported as 133 to 135 °C. With `O=c1cnc2c(NC(CO)CO)nc(SCc3cccc(Cl)c3F)nc2[nH]1` the melting point was 218 to 220 °C. Work on `CCCn1c(COCC)nc2c(N)nc3ccc(OCC(=O)N4CCS(=O)(=O)CC4)cc3c21` yielded a melting point of 223 to 225 °C. `Cc1cccc(C(=O)NC(C)C)c1NC(=O)c1cnc(C(F)(F)F)nc1C` gave a melting point of 248 to 251 °C. Compound `CCOC(=O)C1=Cc2cc(C(F)(F)C(F)(F)F)ccc2OC1C(F)(F)F` (configuration not stated) has a melting point of 162 to 165 °C. `O=C(CCO)N1c2ccccc2CCC1CN1CCN(c2cccc3[nH]ccc23)CC1` (configuration not stated) showed a melting point of 58 to 61 °C. With `COCNC(=O)NC1CCCc2sccc21` (configuration not stated) the melting point was 160 to 162 °C. `CCCCCc1ccc(OCC23CCC(CCC)(CC2)CC3)c(C#N)c1C#N` showed a melting point of 133 °C. With `CN1CCC(c2c[nH]c3ccc(O[Si](C)(C)C(C)(C)C)cc23)CC1` the melting point was 191 to 195 °C. With `COc1cc(OC)c2c(=O)[nH]c(-c3ccc4[nH]c(CN(C)C)cc4c3)nc2c1` the melting point was 187 to 188 °C. In the case of `CC1=C(CC#N)CCc2ccccc21`, the melting point is reported as 48 to 49 °C. Compound `CCCCc1nnc(SCc2ccc(Cl)cc2)n1Cc1ccc(-c2ccccc2-c2nnn[nH]2)cc1` has a melting point of 92 to 93 °C. Compound `Cc1nc(-c2ccccc2)cc(=O)[nH]1` has a melting point of 238 to 240 °C. For `CC(CSC(=O)c1ccccc1)C(=O)N(CC(=O)O)C1CCC(c2ccccc2)CC1` (configuration not stated), the melting point was 180 to 181 °C. `O=C(Nc1ccc(C(=O)c2ccccc2)cc1)c1cc(Cl)cc(Cl)c1` gave a melting point of 219 to 220 °C. `CC(=O)OCCn1nc(-c2cc(C(C)(C)C)c(O)c(C(C)(C)C)c2)c2c(C)cc(C)nc21` gave a melting point of 110 to 111 °C. In the case of `CCOC(=O)c1cn2c3c(c(Cl)ccc3c1=O)N(C)CC2C` (configuration not stated), the melting point is reported as 259 to 261 °C. `CCCCCCCCCC(C)NC(=O)C=Cc1cccc([N+](=O)[O-])c1` (configuration not stated) gave a melting point of 81 to 83 °C. In the case of `Cc1ccc(C2Sc3ccccc3NC(=O)C2CO)cc1` (configuration not stated), the melting point is reported as 229 °C. Work on `CCOCc1nc2c(N)nc3ccccc3c2n1CC1(O)CCN(C(=O)OC(C)(C)C)CC1` yielded a melting point of 195 to 197 °C. For `c1ccc(COc2ccc3[nH]c(-c4ccccc4)cc3c2)cc1`, the melting point was 168 to 170 °C. For `CCN1CCc2nc(Nc3cc(-c4cc(F)cc(C5NCCc6c5sc5c6CC(C)(C)C5)c4CO)cn(C)c3=O)ccc2C1` (configuration not stated), the melting point was 134 to 135 °C. For `O=C(O)c1csc(Nc2ccc(C(F)(F)F)cc2)n1`, the melting point was 255 to 259 °C. Compound `CN1CC(CO)CC2(OCCCO)c3cccc4[nH]cc(c34)CC12` (configuration not stated) has a melting point of 189 to 195 °C. For `CC(C)(C)c1cc(SC2(Sc3cc(C(C)(C)C)c(O)c(C(C)(C)C)c3)CCCCCC2)cc(C(C)(C)C)c1O`, the melting point was 144 to 146 °C. In the case of `CCCOCCOc1ccc(COc2ccc3c(c2)C=C(C(=O)O)CCS3(=O)=O)cc1`, the melting point is reported as 244 to 250 °C. `CC1(C)OCC(N2CCC(Cc3ccccc3)CC2)O1` (configuration not stated) gave a melting point of 92 to 94 °C. With `Cn1cc(C(=O)NCc2ccc(Cl)cc2)c(=O)c2sc(C=O)c(COCC[Si](C)(C)C)c21` the melting point was 174 to 176 °C. Compound `CC1(c2cn(-c3c(Cl)cc(C(F)(F)F)cc3Cl)nc2C#N)CC1` has a melting point of 138 to 139 °C. `COc1ccc(C(=O)c2[nH]c(=O)[nH]c2COC(C)=O)cc1` showed a melting point of 155 to 162 °C. In the case of `N#CC1CCC(c2ccc(N)cc2)CC1` (configuration not stated), the melting point is reported as 132 to 140 °C. Work on `Cc1ccc(-c2c(-c3ccc(S(C)(=O)=O)cc3)cnn(-c3cccc(Cl)c3)c2=O)cc1` yielded a melting point of 222 to 224 °C. For `CCCCn1c(S)nc2ccccc2c1=O`, the melting point was 167 to 172 °C. Work on `COc1cc(C(=O)NS(=O)(=O)c2ccccc2Cl)ccc1Cc1c(Cl)n(C)c2ccc(CC3CCN(C)C3=O)cc12` (configuration not stated) yielded a melting point of 126 to 134 °C. `COc1ccc2oc(C(=O)c3cc(F)ccc3N3CCOCC3)cc2c1` showed a melting point of 85 to 88 °C. `O=C1OC(Cc2ccc([N+](=O)[O-])cc2)C(=O)N1Cc1ccccc1` (configuration not stated) showed a melting point of 92 to 93 °C. Compound `Cc1[nH]c(=O)[nH]c1C(=O)c1ccc(N2CCCCC2)cc1` has a melting point of 260 to 263 °C. Work on `CN1CCN(C)c2c(cccc2[N+](=O)[O-])C1=O` yielded a melting point of 146 to 147 °C. In the case of `COc1c(C)c(N2CCN(c3ccc(F)cc3)CC2)c(C)c2c1OC(C)(C)C2`, the melting point is reported as 137 to 139 °C. Work on `Cc1ccc(C(=O)O)c2c1CCCO2` yielded a melting point of 140 °C. `COc1ccc2cccc(C#N)c2c1` showed a melting point of 62 to 66 °C. For `O=C(Nc1cc(C(F)(F)F)cc(C(F)(F)F)c1)c1ccccc1SSc1ccccc1C(=O)Nc1cc(C(F)(F)F)cc(C(F)(F)F)c1`, the melting point was 213 to 214 °C. `CSC(SC)=C1C(=O)CCCC1=O` showed a melting point of 66 to 67 °C. For `CC(C)(O)CCOc1c(-c2ccc(S(C)(=O)=O)cc2)cnn(-c2ccc(F)cc2)c1=O`, the melting point was 133 to 134 °C. `Cc1c(F)cccc1NC(=O)CN1CC2CCC(C1)N2S(=O)(=O)c1ccccc1` showed a melting point of 168 to 169 °C. `O=C(NC1CN2CCC1CC2)c1cccc2oc(-c3ccc(Cl)cc3)nc12` (configuration not stated) gave a melting point of 194 to 196 °C. For `CNc1ccccc1CNC(=O)C1Cc2ccccc2N1S(=O)(=O)c1ccc(-c2cccc(C(F)(F)F)c2)cc1` (configuration not stated), the melting point was 86 °C. With `CCCCCC(=O)c1ccc(O)c(C(=O)O)c1` the melting point was 48 to 49 °C. In the case of `N=C(N)c1cccc(Cn2ccc3ncn(Cc4ccc5ccc(C(=N)N)cc5c4)c3c2=O)c1`, the melting point is reported as over 300 °C. `CCc1cc(=O)c2nc(Cl)ccc2[nH]1` showed a melting point of 269 to 270 °C. Compound `COc1cn(-c2ccc(C(F)(F)F)cc2F)nc(-c2ccnn2-c2ccccc2)c1=O` has a melting point of 169 to 171 °C. In the case of `O=C(COc1ccc(CN2CCCC2)cc1)Nc1ccc(Br)cc1`, the melting point is reported as 143 to 145 °C. `CC(C)(C)c1cc(-c2n[nH]c(=S)[nH]2)cc(C(C)(C)C)c1O` gave a melting point of 271 °C. Work on `CCC(c1oc2ccccc2c(=O)c1-c1ccccc1F)n1cnc2c(N)ncnc21` (configuration not stated) yielded a melting point of 160 to 163 °C. In the case of `OC(c1ncc[nH]1)(c1ccc(Cl)cc1Cl)c1ccc(Cl)cc1Cl`, the melting point is reported as 193 °C. Compound `O=C1c2ccccc2-c2c1nc(Cl)c1ccccc21` has a melting point of 242 to 244 °C. In the case of `CCCCCOC(=O)C1=C(C)NC(C)=C(C(=O)NC(C)C)C1c1ccccc1[N+](=O)[O-]` (configuration not stated), the melting point is reported as 186 to 189 °C. Compound `CC1=CC2CC(O)CCC2(C)C2=C1C1CCC(C(C)CCCC(C)C)C1(C)CC2` (configuration not stated) has a melting point of 112 to 113 °C. `O=[N+]([O-])CC1C2(CCCC1(c1ccccc1)c1ccccc1)OCCO2` (racemic) showed a melting point of 148 °C. `CN1C(=O)c2c(Cl)cc(Cl)c(Cl)c2C1=O` gave a melting point of 166 to 168 °C. With `CCSC1=NCC(=O)N1c1ccccc1` the melting point was 79 to 81 °C. With `COC(=O)Cn1cnc(N2CCc3ccccc3CC2)c(C#N)c1=O` the melting point was 156 to 160 °C. Compound `Nc1cc(Oc2ccc(S(=O)(=O)c3ccc(OCc4ccccc4)c(Cl)c3)cc2Cl)c([N+](=O)[O-])cc1O` has a melting point of 181 to 184 °C. For `CC12CC3OC3CC1CCC1C2CCC2(C)C(O)C(N3CCCC3)CC12` (configuration not stated), the melting point was 156 to 160 °C. Work on `c1ccc(C(c2ccc3[nH]nnc3c2)n2cncn2)cc1` (configuration not stated) yielded a melting point of 183 °C. For `O=C(Cc1cccc2ccccc12)N[C@H]1C[C@H](C(=O)O)Nc2cc(Cl)cc(Cl)c21` (relative stereo), the melting point was 257 to 258 °C. Compound `CC(C)c1cccc(C(C)C)c1NC(=O)NCC1c2ccccc2-c2ccccc21` has a melting point of 217 to 218 °C. With `NC(=S)c1sc(-c2ccccc2)nc1N` the melting point was 164 to 167 °C. Work on `FC(F)(F)Oc1ccc(-c2ncc(Br)cn2)cc1` yielded a melting point of 107 to 108 °C. `Cc1nc2cc(NC(=O)NC34CC5CC(CC(C5)C3)C4)ccc2s1` gave a melting point of 209 to 214 °C. In the case of `COc1ccc(C2CCCCC2)cc1-c1csc(NC(=O)N2CCN(C(=O)C3CCOCC3)CC2)n1`, the melting point is reported as 276 °C. Compound `COc1cc(N)c(Cl)cc1C(=O)NCC1CCC(C)N1Cc1ccccc1` (configuration not stated) has a melting point of 136 to 137 °C. For `CNS(=O)(=O)c1cc(S(=O)(=O)NC)c(C(Cl)=C(Cl)Cl)cc1N`, the melting point was 211 to 212 °C. Work on `CSc1ccc(C(=O)COc2ccc(F)cc2F)cc1` yielded a melting point of 70 to 71 °C. Work on `COc1cc2c(cc1O)C(=O)CCC2` yielded a melting point of 147 to 148 °C. With `C=CCn1c(=O)n(CCC)c(=O)c2[nH]c(C34CC5CC(CC3C5)C4)nc21` the melting point was 196 to 197 °C. With `CCc1cc(OC)c(OC)cc1Cc1cnc(N)nc1N` the melting point was 206 to 207 °C. `CCCCCCCCCCCCCCCCOCC(CN)COC` (configuration not stated) gave a melting point of 49 to 51 °C. Compound `O=S(N=Cc1ccccc1)c1nccnc1Cl` (configuration not stated) has a melting point of 113 to 114 °C. Compound `CC1(C)CCC(=O)Nc2cc(Nc3ncc4cc5ccccc5n4n3)ccc21` has a melting point of 230 to 240 °C. For `Clc1nc2ccccc2c2c1ncn2Cc1ccccn1`, the melting point was 217 to 220 °C. Work on `N=C(NO)c1ccc(-c2cccc(-c3nc4ccc(C(=N)NO)cc4[nH]3)n2)cc1` yielded a melting point of over 290 °C. Work on `CC(Oc1ccc(N(C)c2cc3ccc(Cl)cc3c(Cl)n2)cc1)C(=O)O` (configuration not stated) yielded a melting point of 136 °C. In the case of `Cc1cccc(OC(=O)n2c3c(c(=O)n(C4CCCCO4)c2=O)CCC3)c1` (configuration not stated), the melting point is reported as 155 °C. With `O=C(Cc1ccc(I)cc1)NC[C@H]1CCCN1` the melting point was 120 °C. Compound `CC(C)(C)C(=O)OCc1nc(-c2ccc3c(c2)Nc2ccccc2S3)cs1` has a melting point of 120 to 122 °C. Compound `CSc1nc(-c2ccc(S(C)(=O)=O)cc2)n(-c2ccc(C(C)C)cc2)c(=O)c1C#N` has a melting point of 211 to 212 °C. Work on `Nn1c(C(F)(F)F)cc(=O)n(-c2cc([N+](=O)[O-])c(Br)cc2F)c1=O` yielded a melting point of 165 °C. With `CSCC(=O)[C@H](Cc1ccccc1)NC(=O)[C@H](CC(C)C)NC(=O)OC(C)(C)C` the melting point was 117 to 118 °C. In the case of `O=C(O)[C@H](Cc1ccc(OCc2ccccc2)cc1)NS(=O)(=O)c1ccc(N2CCC(c3ccccc3)CC2)cc1`, the melting point is reported as 75 to 78 °C. `CC(C)(OCc1cc2cc(C(F)(F)F)ccc2n1S(=O)(=O)c1ccc2c(c1)OCO2)C(=O)O` showed a melting point of 130 to 132 °C. In the case of `CCOC(=O)c1ccc([N+](=O)[O-])cc1F`, the melting point is reported as 70 to 73 °C. For `CC1(C)CCC(C)(C)c2cc(-c3cc(-c4ccc(C(=O)O)c(O)c4)ccc3-c3ccccc3)ccc21`, the melting point was 134 to 136 °C. Compound `CC(C)c1ccc(C(=O)O)c(C2=NC(=O)C(C)(C(C)C)N2)n1` (configuration not stated) has a melting point of 131 to 134 °C.

Reference: a melting point compilation (Tetko et al.; mined from patent text by program, amines drawn as free bases though some values may be those of a salt)
